Like-named read-outs stand apart in the source and are kept apart here.
What was measured:
Assay type in all cases: biochemical
MAGL [1] = molecular target: MAGL (Mus musculus (Mouse), UniProt O35678); test: In vitro competitive activity-based protein profiling (mouse brain membrane fraction or cell lysates), MAGL band; conditions: 1 μM; for inhibition at 1 µM: read-out: MAGL % Inh 1 μM (mouse)
Method: In Vitro Competitive Activity-Based Protein Profiling.
Proteomes (mouse brain membrane fraction or cell lysates) (50 μL, 1.0 mg/mL total protein concentration) were preincubated with varying concentrations of inhibitors at 37° C. After 30 min, FP—Rh (1.0 μL, 50 μM in DMSO) was added and the mixture was incubated for another 30 min at 37° C. Reactions were quenched with SDS loading buffer (50 μL-4×) and run on SDS-PAGE.

ABHD6 = ABHD6 (Mus musculus (Mouse), UniProt Q8R2Y0); test: In vitro competitive activity-based protein profiling (mouse brain membrane fraction or cell lysates), ABHD6 band; conditions: 1 μM, read-out: ABHD6 % Inh 1 μM (mouse)
Chain of ABHD6 (Q8R2Y0 whole entry): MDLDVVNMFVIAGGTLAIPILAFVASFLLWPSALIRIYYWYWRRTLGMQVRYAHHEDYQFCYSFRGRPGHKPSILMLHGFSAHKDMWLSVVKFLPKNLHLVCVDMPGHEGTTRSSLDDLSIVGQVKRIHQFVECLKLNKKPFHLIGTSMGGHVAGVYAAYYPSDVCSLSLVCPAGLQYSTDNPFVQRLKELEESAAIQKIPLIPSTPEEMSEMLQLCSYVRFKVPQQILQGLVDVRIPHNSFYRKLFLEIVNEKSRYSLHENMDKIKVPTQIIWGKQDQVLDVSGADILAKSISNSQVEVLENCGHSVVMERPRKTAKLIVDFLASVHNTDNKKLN
Summary of the method: (§1)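 Mouse proteome samples (brain membrane fraction or cell lysate, 1.0 mg/mL protein) were pretreated with varying inhibitor concentrations and subsequently probed with fluorophosphonate-rhodamine, each step lasting 30 min at 37° C. Labelled proteins were separated by SDS-PAGE, and band fluorescence was imaged and quantified.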

FAAH = FAAH (Mus musculus (Mouse), UniProt O08914); test: In vitro competitive activity-based protein profiling (mouse brain membrane fraction or cell lysates), FAAH band; conditions: 1 μM; for inhibition at 1 µM: read-out: FAAH % Inh 1 μM (mouse)
Chain of FAAH (O08914 whole entry): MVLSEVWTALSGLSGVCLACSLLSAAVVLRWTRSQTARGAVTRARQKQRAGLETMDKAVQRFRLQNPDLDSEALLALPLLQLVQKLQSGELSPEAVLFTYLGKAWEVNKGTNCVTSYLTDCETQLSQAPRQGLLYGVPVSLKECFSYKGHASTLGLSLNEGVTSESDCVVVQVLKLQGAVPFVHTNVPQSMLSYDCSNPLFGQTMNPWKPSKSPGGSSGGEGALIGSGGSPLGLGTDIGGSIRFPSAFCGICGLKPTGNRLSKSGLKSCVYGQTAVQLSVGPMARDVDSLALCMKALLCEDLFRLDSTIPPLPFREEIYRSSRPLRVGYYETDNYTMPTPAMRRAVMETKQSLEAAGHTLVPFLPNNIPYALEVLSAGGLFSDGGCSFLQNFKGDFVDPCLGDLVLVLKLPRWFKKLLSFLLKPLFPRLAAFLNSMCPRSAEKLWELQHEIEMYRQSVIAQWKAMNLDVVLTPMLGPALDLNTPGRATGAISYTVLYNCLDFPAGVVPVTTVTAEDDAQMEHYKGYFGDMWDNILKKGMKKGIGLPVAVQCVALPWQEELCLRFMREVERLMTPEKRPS
Summary of the method: as §1

MAGL [2] = molecular target: MAGL (Homo sapiens (Human), UniProt Q99685); test: In vitro competitive activity-based protein profiling (human prefrontal cortex or cell membrane fractions; hMAGL expressed in HEK293T cells)
Chain of MAGL (Homo sapiens (Human), UniProt Q99685) (Q99685 whole entry): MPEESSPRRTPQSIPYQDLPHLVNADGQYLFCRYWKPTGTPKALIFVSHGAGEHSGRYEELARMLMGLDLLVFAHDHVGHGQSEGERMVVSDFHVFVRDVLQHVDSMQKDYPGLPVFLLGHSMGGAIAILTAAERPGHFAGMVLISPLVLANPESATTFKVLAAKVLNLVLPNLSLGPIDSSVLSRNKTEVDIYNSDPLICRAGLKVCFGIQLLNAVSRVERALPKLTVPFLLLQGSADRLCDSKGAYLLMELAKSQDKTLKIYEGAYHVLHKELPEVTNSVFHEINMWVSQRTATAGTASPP
Method: In Vitro Competitive Activity-Based Protein Profiling (Human).
Proteomes (human prefrontal cortex or cell membrane fractions) (50 μL, 1.0-2.0 mg/mL total protein concentration) were preincubated with varying concentrations of inhibitors at 37° C. After 30 min, FP—Rh or JW912 (1.0 μL, 50 μM in DMSO) was added and the mixture was incubated for another 30 min at room temperature. Reactions were quenched with SDS loading buffer (15 μL-4×) and run on SDS-PAGE.
Recombinant Expression of Human MAGL in HEK293T Cells.
Cell lysates were diluted with mock proteomes for use in competitive ABPP experiments.

[3] = human proteome, competitive ABPP

Chain of MAGL (Mus musculus (Mouse), UniProt O35678) (O35678 whole entry): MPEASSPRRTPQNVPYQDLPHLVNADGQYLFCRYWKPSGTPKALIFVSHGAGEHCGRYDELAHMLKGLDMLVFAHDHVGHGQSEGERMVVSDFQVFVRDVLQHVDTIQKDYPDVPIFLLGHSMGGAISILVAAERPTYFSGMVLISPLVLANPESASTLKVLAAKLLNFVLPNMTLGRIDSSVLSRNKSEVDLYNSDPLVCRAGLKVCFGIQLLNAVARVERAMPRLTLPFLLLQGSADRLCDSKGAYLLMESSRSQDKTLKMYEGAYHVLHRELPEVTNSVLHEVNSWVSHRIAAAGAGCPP

SMILES | inhibition at 1 µM (MAGL [1]; mouse proteome) [%] | inhibition at 1 µM (ABHD6; mouse proteome) [%] | inhibition at 1 µM (FAAH; mouse proteome) [%] | IC50 (MAGL [2]; [3]) [nM] | MAGL % Inh 1 μM (mouse) (MAGL [1]; mouse) | inhibition at 1 µM (ABHD6; mouse) [%] | FAAH % Inh 1 μM (mouse) (FAAH; mouse) | IC50 (MAGL [2]; human) [nM] | inhibition at 1 µM (MAGL [1]; mouse) [%] | inhibition at 1 µM (FAAH; mouse) [%]
O=C(O)C1CCN(c2cc(CN3CCCC34CCN(C(=O)OC(C(F)(F)F)C(F)(F)F)CC4)cc(C(F)(F)F)c2)C1 (stereo not shown) [Example 203] | > 75 | < 25 | < 25 | < 100 |  |  |  |  |  | 
O=C(O)C1CN(c2cc(CN3CCCC34CCN(C(=O)OC(C(F)(F)F)C(F)(F)F)CC4)cc(C(F)(F)F)c2)CCO1 (stereo not shown) [Example 204] | > 75 | < 25 | < 25 | < 100 |  |  |  |  |  | 
O=C(OC(C(F)(F)F)C(F)(F)F)N1CCC2(CCCN2Cc2cc(-c3nnn[nH]3)cc(C(F)(F)F)c2)CC1 [Example 205] | > 75 | 25 to 75 | < 25 | < 100 |  |  |  |  |  | 
O=C(O)c1cc(CN2CCCC23CCN(C(=O)OC(C(F)(F)F)C(F)(F)F)CC3)cc(C(F)(F)F)c1 [Example 206] | > 75 | 25 to 75 | < 25 | < 100 |  |  |  |  |  | 
O=C(O)C1CN(c2cc(C(F)(F)F)ccc2CN2CCC3(CCN(C(=O)OC(C(F)(F)F)C(F)(F)F)CC3)C2)CCO1 (stereo not shown) [Example 209] | > 75 | 25 to 75 | < 25 | < 100 |  |  |  |  |  | 
O=C(O)[C@@H]1CCCN(c2cc(CN3CCC4(CCN(C(=O)OC(C(F)(F)F)C(F)(F)F)CC4)C3)cc(C(F)(F)F)c2)C1 [Example 222] |  |  |  |  | ### (### is ≥75%) | < 25 | # (# is <25%) | < 100 |  | 
CC1(C(=O)O)CCCN(c2cc(CN3CCC4(CCN(C(=O)OC(C(F)(F)F)C(F)(F)F)CC4)C3)cc(C(F)(F)F)c2)C1 (stereo not shown) [Example 223] |  |  |  |  |  | < 25 |  | < 100 | > 75 | < 25
O=C(O)C1CCN(c2ccc(CN3CCC4(CCN(C(=O)OC(C(F)(F)F)C(F)(F)F)CC4)C3)cc2C(F)(F)F)CC1 [Example 228] |  |  |  |  |  | ≥ 75 |  | < 100 | > 75 | < 25
CC1(C(=O)O)CCN(c2cc(CN3CCC4(CCN(C(=O)OC(C(F)(F)F)C(F)(F)F)CC4)C3)cc(C(F)(F)F)c2)C1 (stereo not shown) [Example 229] |  |  |  |  |  | ≥ 75 |  | < 100 | > 75 | < 25
O=C(O)C1CCN(c2cc(F)cc(CN3CCC4(CCN(C(=O)OC(C(F)(F)F)C(F)(F)F)CC4)C3)c2)CC1 [Example 233] |  |  |  |  |  | 25 to 75 |  | < 100 | > 75 | < 25
O=C(O)c1ccc(CN2CCC3(CCN(C(=O)OC(C(F)(F)F)C(F)(F)F)CC3)C2)cc1C(F)(F)F [Example 258] |  |  |  |  |  | ≥ 75 |  | > 1000 | > 75 | < 25
O=C(O)C1CCN(c2cc(CN3CCC4(CCN(C(=O)OC(C(F)(F)F)C(F)(F)F)CC4)C3)cc(S(F)(F)(F)(F)F)c2)CC1 [Example 264] |  |  |  |  |  | ≥ 75 |  | < 100 | > 75 | < 25
O=C(O)c1ccc(CN2CCCC23CCN(C(=O)OC(C(F)(F)F)C(F)(F)F)CC3)c(C(F)(F)F)c1 [Example 265] |  |  |  |  |  | ≥ 75 |  | < 100 | > 75 | < 25
C#Cc1ccc(CN2CCCC23CCN(C(=O)OC(C(F)(F)F)C(F)(F)F)CC3)cc1 [Example 280] |  |  |  |  |  | < 25 |  | < 100 | > 75 | < 25

Further lines, results first:

inhibition at 1 µM (MAGL [1]; mouse proteome) [%] | inhibition at 1 µM (ABHD6; mouse proteome) [%] | inhibition at 1 µM (FAAH; mouse proteome) [%] | IC50 (MAGL [2]; [3]) [nM] | MAGL % Inh 1 μM (mouse) (MAGL [1]; mouse) | inhibition at 1 µM (ABHD6; mouse) [%] | FAAH % Inh 1 μM (mouse) (FAAH; mouse) | IC50 (MAGL [2]; human) [nM] | inhibition at 1 µM (MAGL [1]; mouse) [%] | inhibition at 1 µM (FAAH; mouse) [%] | SMILES
> 75 | ≥ 75 | < 25 | < 100 |  |  |  |  |  |  | O=C(O)C1CCN(c2cc(CN3CCC4(CCN(C(=O)OC(C(F)(F)F)C(F)(F)F)CC4)C3)cc(C(F)(F)F)c2)C1 (stereo not shown) [Example 202]
> 75 | ≥ 75 | < 25 | < 100 |  |  |  |  |  |  | O=C(O)[C@H]1CCCN(c2cc(C(F)(F)F)ccc2CN2CCC3(CCN(C(=O)OC(C(F)(F)F)C(F)(F)F)CC3)C2)C1 [Example 215]
> 75 | ≥ 75 | < 25 | < 100 |  |  |  |  |  |  | CC1(C(=O)O)CCN(c2cc(C(F)(F)F)ccc2CN2CCC3(CCN(C(=O)OC(C(F)(F)F)C(F)(F)F)CC3)C2)C1 (stereo not shown) [Example 219]
 |  |  |  |  | < 25 |  | < 100 | > 75 | < 25 | O=C(O)C1CCCCN1c1cc(CN2CCC3(CCN(C(=O)OC(C(F)(F)F)C(F)(F)F)CC3)C2)cc(C(F)(F)F)c1 (stereo not shown) [Example 225]
 |  |  |  |  | 25 to 75 |  | < 100 | > 75 | < 25 | O=C(O)C1CCN(c2cc(Cl)cc(CN3CCC4(CCN(C(=O)OC(C(F)(F)F)C(F)(F)F)CC4)C3)c2)CC1 [Example 232]
 |  |  |  |  | ≥ 75 |  | < 100 | > 75 | < 25 | O=C(O)C1CCN(c2cc(CN3CCC4(CCN(C(=O)OC(C(F)(F)F)C(F)(F)F)CC4)C3)ccc2C(F)(F)F)CC1 [Example 234]
 |  |  |  |  | < 25 |  | < 100 | > 75 | < 25 | O=C(O)C1CCN(Cc2cc(C(F)(F)F)ccc2CN2CCC3(CCN(C(=O)OC(C(F)(F)F)C(F)(F)F)CC3)C2)CC1 [Example 239]
 |  |  |  |  | ≥ 75 |  | < 100 | > 75 | < 25 | O=C(O)C1CCN(c2cc(S(F)(F)(F)(F)F)ccc2CN2CCC3(CCN(C(=O)OC(C(F)(F)F)C(F)(F)F)CC3)C2)CC1 [Example 241]
 |  |  |  |  | ≥ 75 |  | < 100 | > 75 | < 25 | O=C(O)C1CCN(Cc2cc(CN3CCC4(CCN(C(=O)OC(C(F)(F)F)C(F)(F)F)CC4)C3)cc(C(F)(F)F)c2)CC1 [Example 245]
 |  |  |  |  | ≥ 75 |  | < 100 | > 75 | < 25 | O=C(O)C1CCN(Cc2ccc(CN3CCC4(CCN(C(=O)OC(C(F)(F)F)C(F)(F)F)CC4)C3)cc2C(F)(F)F)CC1 [Example 247]
 |  |  |  |  | ≥ 75 |  | < 100 | > 75 | < 25 | CC1(C(=O)O)CN(c2cc(CN3CCC4(CCN(C(=O)OC(C(F)(F)F)C(F)(F)F)CC4)C3)cc(C(F)(F)F)c2)CCO1 (stereo not shown) [Example 252]
 |  |  |  |  | < 25 |  | < 100 | 25 to 75 | < 25 | O=C(O)c1cc(C(F)(F)F)ccc1CN1CCCC12CCN(C(=O)OC(C(F)(F)F)C(F)(F)F)CC2 [Example 261]
 |  |  |  |  | 25 to 75 |  | < 100 | > 75 | < 25 | O=C(O)C1CCN(c2cc(CN3CCCC34CCN(C(=O)OC(C(F)(F)F)C(F)(F)F)CC4)cc(S(F)(F)(F)(F)F)c2)CC1 [Example 263]
 |  |  |  |  | 25 to 75 |  | < 100 | > 75 | < 25 | NC(=O)C1CCN(C(=O)c2cc(C(F)(F)F)ccc2CN2CCCC23CCN(C(=O)OC(C(F)(F)F)C(F)(F)F)CC3)CC1 [Example 276]
 |  |  |  |  | ≥ 75 |  | < 100 | > 75 | < 25 | O=C(O)C1CN(c2cc(CN3CCC4(CCN(C(=O)OC(C(F)(F)F)C(F)(F)F)CC4)C3)cc(C(F)(F)F)c2)CCO1 (stereo not shown) [Example 277]
 |  |  |  |  | ≥ 75 |  | < 100 | > 75 | < 25 | O=C(O)C1COCCN1c1cc(CN2CCC3(CCN(C(=O)OC(C(F)(F)F)C(F)(F)F)CC3)C2)cc(C(F)(F)F)c1 (stereo not shown) [Example 278]
 |  |  |  |  | ≥ 75 |  | < 100 | > 75 | < 25 | O=C(O)C1CCN(c2cc(CN3CCC4(CCN(C(=O)OC(C(F)(F)F)C(F)(F)F)CC4)C3)cc(C(F)(F)F)c2)CC1 [Example 279]

Reference: US10030020B2, “Spirocycle compounds and methods of making and using same” (Abide Therapeutics, Inc., priority 2016, dated 2018)
